Read-outs that look alike come from different tables or passages of the source.
How the values were obtained:
human M2 receptor [1] = target: T1, human M2 receptor (Homo sapiens, UniProt P08172); details: for Efficiency: boosting of the acetylcholine effect at EC20 acetylcholine concentration
T1 sequence (P08172 1-466): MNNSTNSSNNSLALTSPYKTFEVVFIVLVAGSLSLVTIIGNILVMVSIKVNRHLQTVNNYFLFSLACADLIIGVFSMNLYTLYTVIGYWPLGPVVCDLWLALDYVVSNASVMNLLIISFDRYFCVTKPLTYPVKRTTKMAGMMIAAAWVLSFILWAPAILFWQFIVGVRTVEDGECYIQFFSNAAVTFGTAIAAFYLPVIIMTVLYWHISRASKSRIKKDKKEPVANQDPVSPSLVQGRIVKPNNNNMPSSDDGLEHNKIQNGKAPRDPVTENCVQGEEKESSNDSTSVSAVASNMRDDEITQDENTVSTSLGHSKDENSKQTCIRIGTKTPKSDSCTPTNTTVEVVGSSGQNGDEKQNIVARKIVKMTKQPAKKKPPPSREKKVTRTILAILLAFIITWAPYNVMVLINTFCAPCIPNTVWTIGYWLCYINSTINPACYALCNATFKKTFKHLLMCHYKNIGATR

human M2 receptor [2] = target: T1, human M2 receptor; format: cell-based; details: α >1 = positive cooperativity
Method: B-1.2. Determination of Positive Cooperativity (α Factor)
In contrast to the EC50 determination of the test substances (see B-1.1), however, this is not done using one acetylcholine concentration; instead, every concentration of the test substance is combined with an acetylcholine 8-point dose-response curve. […] The shift in the acetylcholine dose-response curve in the presence of increasing concentrations of the test substance is analysed and quantified by means of GraphPad PRISM (Allosteric EC50 shift). […] Positive cooperativity is the hallmark of a positive allosteric modulator. […] The greater the magnitude of the α value, the greater the extent of cooperativity between orthosteric and allosteric.

[3] = Receptor activity EC50, M2-GIRK1/4 activation test, acetylcholine at EC20, allosteric potency, in some cases mean values from two or more determinations
[4] = shift in the acetylcholine dose-response curve (Allosteric EC50 shift, GraphPad PRISM)
[5] = Receptor activity EC50, allosteric potency at EC20 acetylcholine, M2-GIRK1/4 reporter cells, in some cases mean of two or more determinations
[6] = shift of acetylcholine dose-response curve (Allosteric EC50 shift)
[7] = read-out: Efficiency, boosting of the acetylcholine effect at EC20 acetylcholine concentration, M2-GIRK1/4 reporter cells

Compound | EC50 (human M2 receptor [1]; [3]) | Cooperativity (alpha factor) (human M2 receptor [2]; [4]) | EC50 (human M2 receptor [1]; [5]) | Cooperativity (alpha factor) (human M2 receptor [2]; [6]) | further results
CC[C@@H](NC(=O)c1cn(-c2c(F)cccc2F)c2nc(N3CC4CC4(O)C3)ccc2c1=O)C(F)(F)F (single isomer, unassigned) [Example 305] | 12 nM | 23 | – | – | –
CC[C@H](NC(=O)c1cn(-c2ccc(F)cc2F)c2nc(NCCF)ccc2c1=O)C(F)(F)F [Example 87, 1-(2,4-Difluorophenyl)-7-[(2-fluoroethyl)amino]-4-oxo-N-[(2S)-1,1,1-trifluorobutan-2-yl]-1,4-dihydro-1,8-naphthyridine-3-carboxamide] | 129 nM | 26 | – | – | –
CC(C)C(NC(=O)c1cn(-c2c(F)cc(F)cc2F)c2nc(N3C[C@@H](O)[C@H](O)C3)ccc2c1=O)C(F)(F)F (single isomer, unassigned) [Example 554] | – | – | 10 nM | 54 | Efficiency (human M2 receptor [1]; M2-GIRK1/4 reporter cells): 94.5%
CC(C)(C)[C@H](NC(=O)c1cn(-c2c(F)cc(F)cc2F)c2nc(N3C[C@@H](O)[C@H](O)C3)ccc2c1=O)C(F)(F)F [Example 369, 7-[(3R,4R)-3,4-Dihydroxypyrrolidin-1-yl]-4-oxo-N-[(2S)-1,1,1-trifluoro-3,3-dimethylbutan-2-yl]-1-(2,4,6-trifluorophenyl)-1,4-dihydro-1,8-naphthyridine-3-carboxamide] | 8 nM | 39 | – | – | Emax (human M2 receptor [1]; read-out: Efficiency): 95%
CC(C)(NC(=O)c1cn(-c2c(F)cc(F)cc2F)c2nc(N3C[C@@H](O)[C@H](O)C3)ccc2c1=O)C(F)F [Example 634, N-(1,1-Difluoro-2-methylpropan-2-yl)-7-[(3R,4R)-3,4-dihydroxypyrrolidin-1-yl]-4-oxo-1-(2,4,6-trifluorophenyl)-1,4-dihydro-1,8-naphthyridine-3-carboxamide] | – | – | 54 nM | 48 | Emax (human M2 receptor [1]; [7]): 100%
CC[C@H](NC(=O)c1cn(-c2ccc(F)cc2F)c2nc(N3C[C@H](O)CC3=O)ccc2c1=O)C(F)(F)F [Example 285, 1-(2,4-Difluorophenyl)-7-[(4R)-4-hydroxy-2-oxopyrrolidin-1-yl]-4-oxo-N-[(2S)-1,1,1-trifluorobutan-2-yl]-1,4-dihydro-1,8-naphthyridine-3-carboxamide] | 598 nM | 23 | – | – | Emax (human M2 receptor [1]; read-out: Efficiency): 79.9%
O=C(NC12CC(C1)C2)c1cn(-c2c(F)cc(F)cc2F)c2nc(N3C[C@@H](O)CC3=O)ccc2c1=O [Example 358, N-(Bicyclo[1.1.1]pent-1-yl)-7-[(4S)-4-hydroxy-2-oxopyrrolidin-1-yl]-4-oxo-1-(2,4,6-trifluorophenyl)-1,4-dihydro-1,8-naphthyridine-3-carboxamide] | 24 nM | 31 | – | – | –
CCC(NC(=O)c1cn(-c2ccc(F)cc2F)c2nc(N3C[C@@H](O)CC3=O)ccc2c1=O)C(F)(F)F (stereo partly drawn) [Example 176] | 95 nM | 28 | – | – | Emax (human M2 receptor [1]; read-out: Efficiency): 94.1%
O=C(NC12CC(C1)C2)c1cn(-c2c(F)cc(F)cc2Cl)c2nc(N3C[C@@H](O)[C@H](O)C3)ccc2c1=O [Example 402, N-(Bicyclo[1.1.1]pent-1-yl)-1-(2-chloro-4,6-difluorophenyl)-7-[(3R,4R)-3,4-dihydroxypyrrolidin-1-yl]-4-oxo-1,4-dihydro-1,8-naphthyridine-3-carboxamide] | – | – | 25 nM | 18 | Emax (human M2 receptor [1]; [7]): 97.5%
CC[C@H](NC(=O)c1cn(-c2c(F)cc(F)cc2F)c2nc(N3CCN(CCO)C3=O)ccc2c1=O)C(F)(F)F [Example 362, 7-[3-(2-Hydroxyethyl)-2-oxoimidazolidin-1-yl]-4-oxo-N-[(2S)-1,1,1-trifluorobutan-2-yl]-1-(2,4,6-trifluorophenyl)-1,4-dihydro-1,8-naphthyridine-3-carboxamide] | – | 27 | – | – | –

Continued, in another order:

EC50 (human M2 receptor [1]; [3]) | Cooperativity (alpha factor) (human M2 receptor [2]; [4]) | EC50 (human M2 receptor [1]; [5]) | Cooperativity (alpha factor) (human M2 receptor [2]; [6]) | Compound | further results
– | – | 6 nM | 37 | O=C(NC(C1CCC1)C(F)(F)F)c1cn(-c2c(F)cc(F)cc2F)c2nc(N3C[C@@H](O)CC3=O)ccc2c1=O (single isomer, unassigned) [Example 507] | Efficiency (human M2 receptor [1]; M2-GIRK1/4 reporter cells): 98.0%
– | – | 6 nM | 16 | CC[C@H](NC(=O)c1cn(-c2c(F)cc(F)cc2Cl)c2nc(N3CCC(C)C3=O)ccc2c1=O)C(F)(F)F (mixture of isomers) [Example 422, 1-(2-Chloro-4,6-difluorophenyl)-7-[3-methyl-2-oxopyrrolidin-1-yl]-4-oxo-N-[(2S)-1,1,1-trifluorobutan-2-yl]-1,4-dihydro-1,8-naphthyridine-3-carboxamide] | Emax (human M2 receptor [1]; [7]): 79%
– | – | 50 nM | 21 | CCC1CCN(c2ccc3c(=O)c(C(=O)N[C@@H](C4CC4)C(F)(F)F)cn(-c4c(F)cc(F)cc4F)c3n2)C(=O)N1 (mixture of isomers) [Example 446, N-[(1 S)-1-Cyclopropyl-2,2,2-trifluoroethyl]-7-[4-ethyl-2-oxotetrahydropyrimidin-1(2H)-yl]-4-oxo-1-(2,4,6-trifluorophenyl)-1,4-dihydro-1,8-naphthyridine-3-carboxamide] | Emax (human M2 receptor [1]; [7]): 85%
145 nM | 24 | – | – | O=C(NC(c1ccccc1Cl)C(F)(F)F)c1cn(-c2ccccc2F)c2nc(N3CCC(O)C3=O)ccc2c1=O (racemic) [Example 287, N-[1-(2-Chlorophenyl)-2,2,2-trifluoroethyl]-1-(2-fluorophenyl)-7-[3-hydroxy-2-oxopyrrolidin-1-yl]-4-oxo-1,4-dihydro-1,8-naphthyridine-3-carboxamide] | –
24 nM | 28 | – | – | CC[C@@H](NC(=O)c1cn(-c2ccc(F)cc2F)c2nc(N3CC4CC4(O)C3)ccc2c1=O)C(F)(F)F (mixture of isomers) [Example 267, 1-(2,4-Difluorophenyl)-7-[1-hydroxy-3-azabicyclo[3.1.0]hex-3-yl]-4-oxo-N-[(2R)-1,1,1-trifluorobutan-2-yl]-1,4-dihydro-1,8-naphthyridine-3-carboxamide] | –
130 nM | 6 | – | – | CC[C@@H](NC(=O)c1cn(-c2ccc(F)cc2F)c2nc(N3CCNC3=O)ccc2c1=O)C(F)(F)F [Example 320, 1-(2,4-Difluorophenyl)-4-oxo-7-(2-oxoimidazolidin-1-yl)-N-[(2R)-1,1,1-trifluorobutan-2-yl]-1,4-dihydro-1,8-naphthyridine-3-carboxamide] | –
10 nM | 22 | – | – | CC[C@H](NC(=O)c1cn(-c2c(F)cc(F)cc2Cl)c2nc(N3CCNC3=O)ccc2c1=O)C(F)(F)F [Example 340, 1-(2-Chloro-4,6-difluorophenyl)-4-oxo-7-(2-oxoimidazolidin-1-yl)-N-[(2S)-1,1,1-trifluorobutan-2-yl]-1,4-dihydro-1,8-naphthyridine-3-carboxamide] | –
107 nM | 14 | – | – | O=C(NC(c1ccccc1Cl)C(F)(F)F)c1cn(-c2ccc(F)cc2F)c2nc(N3CCCC(O)C3=O)ccc2c1=O (racemic) [Example 206, rac-N-[(1R)-(2-Chlorophenyl)-2,2,2-trifluoroethyl]-1-(2,4-difluorophenyl)-7-[3-hydroxy-2-oxopiperidin-1-yl]-4-oxo-1,4-dihydro-1,8-naphthyridine-3-carboxamide] | –
83 nM | 31 | – | – | O=C(NC(c1c(F)cccc1F)C(F)(F)F)c1cn(-c2ccc(F)cc2F)c2nc(N3CCC(O)CC3=O)ccc2c1=O (single isomer, unassigned) [Example 255, 1-(2,4-Difluorophenyl)-N-[1-(2,6-difluorophenyl)-2,2,2-trifluoroethyl]-7-[4-hydroxy-2-oxopiperidin-1-yl]-4-oxo-1,4-dihydro-1,8-naphthyridine-3-carboxamide] | –
147 nM | 30 | – | – | CC[C@H](NC(=O)c1cn(-c2ccc(F)cc2F)c2nc(N3C[C@@H](C(=O)OC)OC3=O)ccc2c1=O)C(F)(F)F [Example 258, Methyl (5S)-3-[8-(2,4-difluorophenyl)-5-oxo-6-{[(2S)-1,1,1-trifluorobutan-2-yl]carbamoyl}-5,8-dihydro-1,8-naphthyridin-2-yl]-2-oxo-1,3-oxazolidine-5-carboxylate] | –
– | – | 20 nM | 35 | CC(C)(NC(=O)c1cn(-c2c(F)cc(F)cc2F)c2nc(N3C[C@@H](O)CC3=O)ccc2c1=O)C(F)F [Example 516, N-(1,1-Difluoro-2-methylpropan-2-yl)-7-[(4S)-4-hydroxy-2-oxopyrrolidin-1-yl]-4-oxo-1-(2,4,6-trifluorophenyl)-1,4-dihydro-1,8-naphthyridine-3-carboxamide] | Emax (human M2 receptor [1]; [7]): 100%

Reference: US20190367516A1 (Bayer Pharma Aktiengesellschaft, priority 2015, published 2019)
